Patent US20140303216A1, “COMPOSITIONS AND METHODS FOR INDUCING DISRUPTION OF BLOOD VASCULATURE AND FOR REDUCING ANGIOGENESIS” (BOARD OF REGENTS, THE UNIVERSITY OF TEXAS SYSTEM, priority 2011, published 2014)

Assays:
[1] = system: developing Xenopus embryos; assay: Xenopus embryo angiogenesis, in situ hybridization for erg/apinr and kdr:GFP imaging; assay type: in vivo, Xenopus laevis; settings: for anti-angiogenic activity of other benzimidazoles: Xenopus in vivo, at dosages at which TBZ reduces angiogenesis (FIG. 14)
From the text: (§1) Female adult Xenopus were ovulated by injections of human chorionic gonadotropin, and eggs were fertilized in vitro and dejellied in 3% cysteine (pH 7.9) and subsequently reared in ⅓×Marc's modified Ringer's (MMR) solution. For microinjections, embryos were placed in a solution of 2% Ficoll in ⅓×MMR solution, injected using forceps and an Oxford universal manipulator, reared in 2% Ficoll in ⅓×MMR to stage 9, then washed and reared in ⅓×MMR solution alone. For bilateral rab11b knock-down experiments, the posterior cardinal vein and intersomitic veins were targeted by injecting Morpholino antisense oligonucleotides (MOs) into the two ventral cells equatorially at the four-cell stage. For unilateral knockdown, only one ventral cell was injected. MOs were injected at 40 ng per blastomere. For the experiments to see the drug effects, embryos were placed in a solution of each chemical dissolved in 1% DMSO diluted in ⅓×MMR during indicated stages. For bead micro-surgery implantation, Affi-Gel Blue Gel beads (Bio-Rad) were soaked with 0.7 mg/ml recombinant mouse VEGF 164 aa (R&D systems) or BSA as a control. Whole-mount in situ hybridization for erg and apinr was performed as described^29.
To analyze action of TBZ precisely on inhibition of angiogenesis and disruption of vasculature, we tested TBZ on two different developmental stages. Xenopus late tailbud embryos at stage 31 were selected for testing the inhibitory effect of TBZ on angiogenesis (FIG. 3A-D). This embryonic stage coincides with the onset of intersomitic vein (ISV) angiogenesis, the process of forming smaller blood vessels by sprouting from pre-existing blood vessels. To observe disruption of existing vasculature, we selected stage 35/36 embryos in which the posterior cardinal vein (PCV) and ISV are already developed (FIG. 15).

[2] = system: Xenopus embryos; assay: Xenopus embryo morphology and developmental defects; assay type: in vivo; settings: FIG. 14; 250 μM for 2-(Chloromethyl)benzimidazole
From the text: as §1, with “1⁄3×Marc's” for “⅓×Marc's”, “1⁄3×MMR” for “⅓×MMR”, “[…] performed as described^29. Immunostaining for Xenopus” for “erg and apinr”, “previously described (Lee et al., 2008). Embryos at stage 35-36 were fixed in 1×MEMFA. 12/101 (1:500; DSHB), and primary antibodies were detected with Alexa Fluor-488 or 555 goat anti-mouse Immunoglobulin (IgG).” for “described^29.”

[3] = system: angiogenesis; settings: from the literature; cited from earlier work
[4] = system: lung cancer; settings: treatment of lung cancer; cited from earlier work
[5] = system: HUVECs; assay: HUVEC wound scratch cell migration assay; assay type: cell-based, human; settings: added to 250 μM TBZ in 1% DMSO; Y27632 preincubated 2 h
Procedure: HUVECs (1.2×10^5 cells) were seeded into 24-well plate for 24 h, and the monolayers were wounded identically. Then, cells were washed with PBS and treated with EBM-2 containing 1% DMSO or 250 μM TBZ dissolved in 1% DMSO with combination of Y27632 or GGPP (Sigma). In the case of Y27632 treatment, cells were preincubated for 2 h before wounding. Cells were photographed at time zero and after 15 h, and the ratios of cell free area [(0 h-15 h)/0 h] were calculated.

Structure (SMILES) | anti-angiogenic activity of other benzimidazoles [1] | Known effects on angiogenesis [3] | also measured
O=C(O)c1cccc2[nH]cnc12 [1H-Benzimidazole-4-carboxylic acid] | not anti-angiogenic | – | –
ClCc1nc2ccccc2[nH]1 [2-(Chloromethyl)benzimidazole] | not anti-angiogenic | – | developmental (birth) defects in Xenopus [2]: pleiotropic birth defects
Nc1nc2ccc(C(=O)c3ccc(F)cc3)cc2[nH]1 [2-Aminoflubendazole] | not anti-angiogenic | – | –
Nc1ccc2[nH]c(C(F)(F)F)nc2c1 [5-Amino-2-(trifluoromethyl)benzimidazole] | not anti-angiogenic | – | –
Clc1ccc2nc(C(Cl)(Cl)Cl)[nH]c2c1 [5-Chloro-2-(trichloromethyl)benzimidazole] | not anti-angiogenic | – | –
O=c1[nH]cc(F)c(=O)[nH]1 [5-fluorouracil] | – | Inhibitor^† | –
Cc1ccc2c(=O)c3cccc(CC(=O)O)c3oc2c1C [ASA404] | – | – | efficacy in Phase III clinical trial [4]: failed to show efficacy
c1ccc2[nH]cnc2c1 [Benzimidazole] | not anti-angiogenic | – | activity in reducing angiogenesis ([1]; doses up to 1 mM): inactive
O=S(=O)([O-])[O-].[Cu+2] [CuSO4] | – | Activators^‡ | –
CC(C)=CCC/C(C)=C/CC/C(C)=C/CC/C(C)=C/COP(=O)(O)OP(=O)(O)O [GGPP, geranyl-geranyl pyrophosphate] | – | – | reversal of TBZ-impeded HUVEC migration by added compound [5]: did not reverse
COc1c(C)c2c(c(O)c1C/C=C(\C)CCC(=O)O)C(=O)OC2 [Mycophenolic acid] | – | Inhibitor* | –
[N]=O [Nitric oxide] | – | Activator^# | –
C[C@@H](N)[C@H]1CC[C@H](C(=O)Nc2ccncc2)CC1 [Y27632] | – | – | reversal of TBZ-impeded HUVEC migration by added compound [5]: significant and dose-dependent rescue
CC[C@H](C)C(=O)O[C@H]1C[C@@H](C)C=C2C=C[C@H](C)[C@H](CC[C@@H]3C[C@@H](O)CC(=O)O3)[C@H]21 [lovastatin] | – | inhibit angiogenesis | –
